Consider 1 compound from patent publication US20080004200A1, “Enzyme stabilization” (priority 2006, published 2008).

Where a SMILES comes first, the peptide text is derived from it. The star is where a group is joined. Moc = COC(=O)* Bounds are passed on as bounds.

This assay has as its system Gram negative bacteria. The experiment in a line: Gram negative cocktail challenge test in inoculated standard liquid laundry detergent. Format: cell-based. The settings on record: inhibitor 0.004% by weight in standard liquid laundry detergent; for Count (log viable cells): stored at 35° C. Here is the method:
To determine if a compound is capable of at least inhibiting the growth of at least one Gram negative bacteria in the liquid detergent the following test is performed.
A mixture of Gram negative bacteria, also known as a Gram negative cocktail or cocktail, is prepared. The Gram negative cocktail comprises a mixture of Pseudomonas aeruginosa ATCC 9027, Pseudomonas fluorescens ATCC 13525, Burkholderia (Pseudomonas) cepacia ATCC 25416, Klebsiella oxytoca ATCC 13182, Escherichia coli ATCC 8739, Citrobacter freundii ATCC 8090 and Serratia liquefaciens ATCC 27592. The Gram negative bacterial cocktail is prepared by growing each organism individually on plates containing a growth medium and picking isolated colonies for preparation of the Gram negative cocktail. The growth medium is TSA (tryptic soy agar, available from Becton Dickinson). TSA contains per liter water: 15 g pancreatic digest of casein, 5 g enzymatic digest of soy bean meal, 5 g sodium chloride, and 15 g agar with the pH adjusted to 7.3±0.2 using hydrochloric acid, HCL (J. T. Baker).
The individually selected colonies are added to sterilized saline and adjusted to a McFarland standard of #2 (Available from bioMerieux, Inc.) to prepare a standardized saline suspension for the organism. This is repeated for each organism individually, thereby by preparing a standardized saline suspension for each organism. An equal volume (1 ml) of each standardized saline suspension of the following cocktail members are mixed together: Pseudomonas aeruginosa ATCC 9027, Pseudomonas fluorescens ATCC 13525, Burkholderia (Pseudomonas) cepacia ATCC 25416, Klebsiella oxytoca ATCC 13182, Escherichia coli ATCC 8739, Citrobacter freundii ATCC 8090 and Serratia liquefaciens ATCC 27592.
An inoculated liquid laundry detergent is prepared by the addition to 49.5 ml of the standard liquid laundry detergent, described in Table A below, of 0.5 ml of the Gram negative bacterial cocktail as prepared above. This standard liquid laundry detergent also contains from about 0.00001% to about 5%, by weight of the composition, of one or more of the tripeptide enzyme inhibitors described herein.
As the cocktail contains approximately 10^7 to 10^8 cfu/ml (colony forming units/ml); the resulting inoculum level in the inoculated liquid laundry detergent is 10^5 to 10^6 cfu/ml. The inoculated liquid laundry detergent is stored at 35° C., a relative humidity of about 60% and at standard pressure, i.e. 1 atmosphere. Samples of Iml are removed from the inoculated liquid laundry detergent at the following times, 1 day, 2 days, 7 days, 14 days, 21 days and 28 days. These 1 ml samples, are immediately neutralized by addition to a neutralizer, namely polyvalent universal neutralizer (PVUN) which contains (per liter distilled water): 30 g Polysorbate 80 (Available under the brand Tween 80, from VWR International), 5 g Sodium thiosulfate, Ig L-Histidine, Ig Peptone, 8.5 g Sodium chloride, 14.3 g Lecithin with the pH adjusted to 7.0±0.2 with HCL.
Each neutralized sample is then subjected to a serial dilution, to the 10^−5 dilution to allow full enumeration of the surviving microbial population. For example, 1 ml of sample is added to 9 ml of PVUN, resulting in a 1:10 dilution, or 10^−1 dilution. A 1 ml sample of this 1:10 dilution is then added to another 9 ml PVUN, resulting in a 1:100 dilution, or 10^−2 dilution, and so on. Serial dilutions are carried out to 10^−5. 1.0 ml of the various dilutions (10^−1 or 10^−5) are then either spread or pour plated on TSA (tryptic soy agar, Becton Dickinson) and are then incubated for 72 hours at 35° C.±2° C.
After incubation, the plates are counted and recorded as cfu/ml survival vs. time (days 1, 2, 7, 14, 21, and 28 days). Results are recorded as log viable cells on specified sampling days. […]

`COC(=O)N[C@H](C(=O)N[C@@H](C)C(=O)N[C@H](C=O)CC(C)C)C(C)C` (Moc-Val-Ala-Leu-aldehyde): the “Growth of Gram negative bacteria in liquid laundry detergents” value is listed as “prevents the growth of Gram negative bacteria”. Further, the “Count (log viable cells)” value (Day 1, inoculum 10^5 to 10^6 cfu/ml) came out at 4.7 log viable cells. Under “Day 2”, the “Count (log viable cells)” value is recorded as 4.0 log viable cells. The “Count (log viable cells)” value (Day 7) was below 0.1 log viable cells. In addition, the “Count (log viable cells)” value (Day 14) is listed as below 0.1 log viable cells. Also, the “Count (log viable cells)” value (Day 21) was below 0.1 log viable cells. Besides, the “Count (log viable cells)” value (Day 28) is on record as below 0.1 log viable cells.
